Biological target: T1, pancreatic lipase (Sus scrofa, UniProt P00591)
T1 sequence (P00591 1-450): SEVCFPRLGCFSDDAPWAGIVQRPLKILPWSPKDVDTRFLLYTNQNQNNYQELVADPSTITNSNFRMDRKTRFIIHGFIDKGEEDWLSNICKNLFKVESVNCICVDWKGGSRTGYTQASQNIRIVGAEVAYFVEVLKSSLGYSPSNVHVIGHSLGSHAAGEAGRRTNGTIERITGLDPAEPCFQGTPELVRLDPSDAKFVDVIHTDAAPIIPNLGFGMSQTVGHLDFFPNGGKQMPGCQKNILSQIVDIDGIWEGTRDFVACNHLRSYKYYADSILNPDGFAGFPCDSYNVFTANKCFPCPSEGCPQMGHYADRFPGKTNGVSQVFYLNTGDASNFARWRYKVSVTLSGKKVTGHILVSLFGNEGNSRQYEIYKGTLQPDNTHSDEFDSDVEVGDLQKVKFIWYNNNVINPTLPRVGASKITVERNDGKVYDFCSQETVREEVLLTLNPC
Assay: pancreatic lipase inhibition assay
Type: biochemical

Compound	IC50 [µM]
COc1cc(O)c2c(c1)C1(OC2=O)C(C)=CC(=O)C1O (stereo not drawn) [Compound 1, talaroflavone]	73.8 ± 0.82
COc1cc(O)c(C(=O)O)c(-c2cc(O)c(O)cc2C)c1 [Compound 4, altenusin]	21.5 ± 0.97
Cc1cc(O)cc2oc(=O)c3c(O)cc(O)cc3c12 [Compound 5, alternariol]	56.8 ± 0.77
